According to patent US10508109B2 (priority 2015, dated 2019):

Columns and labels:
SUV39H2 = SUV39H2 (Homo sapiens (Human), UniProt Q9H5I1); conditions: read-out: IC50 (μM) Suv 39H2 assay; enzyme assay
A549 = assay: Cell-based assay, anti-proliferative activity (Cell Counting Kit-8, 72 hours); conditions: Homo sapiens; A549 cells, Cell Counting Kit-8, 72 hours; read-out: IC50 (μM) A549
How it was run: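 Growth read-out after inhibitor treatment of plated cells; potency expressed as IC50.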

HFL1 = assay: as above; conditions: Homo sapiens; HFL1 cells, Cell Counting Kit-8, 72 hours; read-out: IC50 (μM) HFL1
How it was run: (§1)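 CCK-8 viability read 72 h after compound exposure over an 8-point series from 1.5625 to 100 micro-M plus zero. Seeding density 2,000–3,000 cells/well; IC50 from the dilution series.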

PC14 = assay: as above; conditions: Homo sapiens, PC-14; PC14 cells, Cell Counting Kit-8, 72 hours; read-out: IC50 (μM) PC14
How it was run: as §1

CCD-18Co = assay: as above; conditions: Homo sapiens; CCD-18Co cells, Cell Counting Kit-8, 72 hours; read-out: IC50 (μM) CCD-18Co
How it was run: as §1

HCT-116 = assay: as above; conditions: Homo sapiens; HCT-116 cells, Cell Counting Kit-8, 72 hours; read-out: IC50 (μM) HCT-116
How it was run: as §1

Chain of SUV39H2 (Q9H5I1 whole entry): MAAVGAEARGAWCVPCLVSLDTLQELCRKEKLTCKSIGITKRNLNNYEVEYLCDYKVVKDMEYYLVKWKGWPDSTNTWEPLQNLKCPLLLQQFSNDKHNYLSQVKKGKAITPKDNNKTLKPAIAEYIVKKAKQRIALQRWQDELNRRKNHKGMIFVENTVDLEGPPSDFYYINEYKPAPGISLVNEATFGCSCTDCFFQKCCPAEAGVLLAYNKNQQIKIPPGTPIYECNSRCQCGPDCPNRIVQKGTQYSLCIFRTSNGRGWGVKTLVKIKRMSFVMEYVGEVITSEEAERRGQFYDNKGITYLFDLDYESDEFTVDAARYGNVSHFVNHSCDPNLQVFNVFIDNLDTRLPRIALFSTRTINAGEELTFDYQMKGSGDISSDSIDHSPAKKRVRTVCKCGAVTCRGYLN

Row | SMILES | IC50 (SUV39H2) [µM] | IC50 (A549) [µM] | IC50 (HFL1) [µM] | IC50 (PC14) [µM] | IC50 (CCD-18Co) [µM] | IC50 (HCT-116) [µM]
1 | COc1cc(OCCCN(C)C)c(-c2cn3ccc(N4CCCC4)cc3n2)cc1Cl [Example 80, 3-{4-chloro-5-methoxy-2-[7-(pyrrolidin-1-yl)imidazo[1,2-a]pyridin-2-yl]-phenoxy}-N,N-dimethylpropan-1-amine] | 0.00531 | 1.6 | 0.85 | 1.7 | 1.8 | 1.1
2 | COc1cc(OCC2CC2)c(-c2cn3ccc(N4CCCC4)cc3n2)cc1Cl [Example 82, 2-(5-chloro-2-(cyclopropylmethoxy)-4-methoxyphenyl)-7-(pyrrolidin-1-yl)imidazo[1,2-a]pyridine] | 0.00538 | 3.5 | 2 | 4.7 | 3.8 | 3.2
3 | COc1cc(OC)c(-c2cn3ccc(N4CCN(CCN(C)C)CC4)cc3n2)cc1Cl [Example 88, 2-(4-(2-(5-chloro-2,4-dimethoxyphenyl)imidazo[1,2-a]pyridin-7-yl)piperazin-1-yl)-N,N-dimethylethanamine] | 0.00884 | 3.3 | 3 | 2.9 | 5.6 | 3.9
4 | COc1cc(OC)c(-c2cn3cc(NCCN)c(N4CCOCC4)cc3n2)cc1Cl [Example 89, N^1-(2-(5-chloro-2,4-dimethoxyphenyl)-7-morpholinoimidazo[1,2-a]-pyridin-6-yl)ethane-1,2-diamine] | 0.00335 | 3 | 1.6 | 2.7 | 3 | 4.4
5 | COc1cc(OC)c(-c2cn3ccc(N4CCC(CCN(C)C)CC4)cc3n2)cc1Cl [Example 94, 2-(1-(2-(5-chloro-2,4-dimethoxyphenyl)imidazo[1,2-a]pyridin-7-yl)piperidin-4-yl)-N,N-dimethylethanamine] | 0.00887 | 2.5 | 4.5 | 2.3 | 3.6 | 2.7
6 | COc1cc(OC)c(-c2cn3ccc(N4CCN(CC#N)CC4)cc3n2)cc1Cl [Example 95, 2-(4-(2-(5-chloro-2,4-dimethoxyphenyl)imidazo[1,2-a]pyridin-7-yl)piperazin-1-yl)acetonitrile] | 0.00807 | 2.9 | 4.1 | 3 | 5.3 | 3.4
7 | COCCCN1CCN(c2ccn3cc(-c4cc(Cl)c(OC)cc4OC)nc3c2)CC1 [Example 96, 2-(5-chloro-2,4-dimethoxyphenyl)-7-(4-(3-methoxypropyl)piperazin-1-yl)imidazo[1,2-a]pyridine] | 0.00833 | 6.9 | 8.4 | 6.4 | 6.8 | 9
8 | COc1cc(OC)c(-c2cn3ccc(N4CCC(CN(C)C)CC4)cc3n2)cc1Cl [Example 97, 1-(1-(2-(5-Chloro-2,4-dimethoxyphenyl)imidazo[1,2-a]pyridin-7-yl)piperidin-4-yl)-N,N-dimethylmethanamine] | 0.00768 | 3.2 | 2.4 | 2.3 | 6.5 | 2.8
9 | COC(=O)N1CCN(c2ccn3cc(-c4cc(Cl)c(OC)cc4OC)nc3c2)CC1 [Example 99, methyl 4-[2-(5-chloro-2,4-dimethoxyphenyl)imidazo[1,2-a]pyridine-7-yl]piperazine-1-carboxylate] | 0.00606 | 1.5 | 1.8 | 1.9 | 1.6 | 1.5
10 | COc1cc(OC)c(-c2cn3ccc(N4CCN(S(=O)(=O)C5CC5)CC4)cc3n2)cc1Cl [Example 103, 2-(5-chloro-2,4-dimethoxyphenyl)-7-[4-(cyclopropylsulfonyl)piperazin-1-yl]imidazo[1,2-a]pyridine] | 0.0103 | 1.3 | 0.61 | 0.7 | 1.6 | 0.55
